Experimental data from PMC10224544, “Synthesis, Structural Elucidation and Pharmacological Applications of Cu(II) Heteroleptic Carboxylates” (Pharmaceuticals, 2023).
Read-outs that look alike come from different tables or passages of the source.

Assays:
DPPH scavenging assay [1] = conditions: Comp. Conc. 62.5 µg/mL; mean ± S.E.M, n = 3
[2] = Hydrogen peroxide scavenging assay; conditions: for H2O2 free radical scavenging ability: mean ± S.E.M, n = 3
Procedure: In addition to DPPH the ligand acids and their complexes were also evaluated for their peroxide scavenging ability test. Hydrogen peroxide (H2O2) is a biologically important, non-radical reactive oxygen species (ROS) that can influence several cellular processes. It is a weak oxidizing agent and can inactivate a few enzymes directly, usually via oxidation of essential thiol (-SH) groups. It can cross cell membranes rapidly, and inside the cell, H2O2 probably reacts with Fe^2+ (and possibly Cu^2+) ions to form the hydroxyl radical, which may be the origin of many of its toxic effects. It is, therefore, biologically advantageous for cells to control the amount of hydrogen peroxide that is allowed to accumulate.
The ligand acids and their Cu(II) carboxylates were further subjected to H2O2 scavenging ability test potential by following the procedure as per cited literature. A 2 mM solution of H2O2 was made in 50 mM phosphate buffer having a pH 7.4. In the next step, 0.1 mL of the screened compounds was added to the 0.3 mL (50 mM) of phosphate buffer, then 0.6 mL of H2O2 was added and the solution was vortexed. After following the incubation period of 10 min, the absorption was 230 nm in comparison to the blank.

[3] = biological target: butyrylcholinesterase (BChE) (Equus caballus, UniProt P81908); experiment: biochemical; conditions: for inhibition at 62.5 µg/mL / inhibition at 125 µg/mL / inhibition at 250 µg/mL / inhibition at 500 µg/mL / inhibition at 1000 µg/mL: read-out: inhibition of butyrylcholinesterase (% BChE activity)
butyrylcholinesterase (BChE), sequence (P81908 whole entry): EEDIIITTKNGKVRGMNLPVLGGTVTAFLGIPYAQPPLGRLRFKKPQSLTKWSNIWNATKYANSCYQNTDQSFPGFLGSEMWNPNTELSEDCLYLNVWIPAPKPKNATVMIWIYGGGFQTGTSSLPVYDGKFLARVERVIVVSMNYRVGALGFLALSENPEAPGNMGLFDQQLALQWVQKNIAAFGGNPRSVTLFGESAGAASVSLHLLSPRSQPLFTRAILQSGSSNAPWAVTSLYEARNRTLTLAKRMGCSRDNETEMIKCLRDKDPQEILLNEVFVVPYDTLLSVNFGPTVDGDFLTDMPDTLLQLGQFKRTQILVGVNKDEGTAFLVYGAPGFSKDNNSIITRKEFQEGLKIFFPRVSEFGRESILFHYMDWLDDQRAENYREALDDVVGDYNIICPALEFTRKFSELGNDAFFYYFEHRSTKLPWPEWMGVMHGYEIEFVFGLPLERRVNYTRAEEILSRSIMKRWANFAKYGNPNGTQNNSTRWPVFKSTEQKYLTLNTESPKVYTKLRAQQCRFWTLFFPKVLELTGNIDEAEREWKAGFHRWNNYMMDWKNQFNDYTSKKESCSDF
Procedure: (§1) The enzymes acetylcholinesterase (AChE) and butyrylcholinesterase (BChE) play an important role in the transfer of signals and physiological function. They assist acetylcholine to hydrolyze and produce choline and acetyl group in synaptic region. So, they are considered as targets in the management of Alzheimer’s disease. Herein, the compounds under study were evaluated for their potential to inhibit acetylthiocholine iodide (AChI) and butyrylthiocholine iodide (BChI) enzymes.
(§2) The well-known Ellman’s assay was implemented to evaluate the inhibitory potential using acetylthiocholine iodide (AChI) and butyrylthiocholine iodide (BChI) as substrates, respectively. The basic principle of the assay is the hydrolysis of acetylthiocholine iodide and butyrylthiocholine iodide by their corresponding enzymes, resulting in the formation of 5-thio-2-nitrobenzoate anion.
(§3) To carry out the assay, 0.1 M buffer solution with pH 8 was prepared as per the cited literature where the pH was adjusted using KOH (potassium hydroxide). Using the freshly prepared buffer and following the dilution, final concentrations of 0.03 U/mL for AChE (518 U/mg solid) and 0.01 U/mL for BChE (7–16 U/mg) were obtained. […] After that, the final solution of each of the AChE and BChE was prepared in distilled water in the presence of […] DTNB and were stored at 8 °C. The experiment was performed by taking 205 µL of inhibitor (tested compound) along with 5 µL of prepared solutions of enzymes, followed by the addition of 5 μL DTNB reagent. They were then incubated for about 15 min in a water bath at a temperature of 30 °C. Later on, 5 µL substrate solution was added to them which were subjected to absorption check at 412 nm. […] The temperature of the spectrophotometer was adjusted at 30 °C and then, following the reaction time of 4 min, the absorbance values were noted after regular intervals. The experiment was repeated, and change in absorption with time was used to calculate the percentage activity of enzyme and enzyme inhibitor [59]. The p values, or calculated probability levels, are categorized as: 5% (p < 0.05), 1% (p < 0.01) and 0.1% (p < 0.001). p < 0.05 means statistically significant and p < 0.001 means highly statistically significant.

[4] = biological target: acetylcholinesterase (AChE) (Electrophorus electricus, UniProt O42275); experiment: biochemical; type: biochemical; conditions: for inhibition at 62.5 µg/mL / inhibition at 125 µg/mL / inhibition at 250 µg/mL / inhibition at 500 µg/mL / inhibition at 1000 µg/mL: read-out: Inhibition of Acetylcholinesterase (%AChE Activity)
acetylcholinesterase (AChE), sequence (O42275 24-633): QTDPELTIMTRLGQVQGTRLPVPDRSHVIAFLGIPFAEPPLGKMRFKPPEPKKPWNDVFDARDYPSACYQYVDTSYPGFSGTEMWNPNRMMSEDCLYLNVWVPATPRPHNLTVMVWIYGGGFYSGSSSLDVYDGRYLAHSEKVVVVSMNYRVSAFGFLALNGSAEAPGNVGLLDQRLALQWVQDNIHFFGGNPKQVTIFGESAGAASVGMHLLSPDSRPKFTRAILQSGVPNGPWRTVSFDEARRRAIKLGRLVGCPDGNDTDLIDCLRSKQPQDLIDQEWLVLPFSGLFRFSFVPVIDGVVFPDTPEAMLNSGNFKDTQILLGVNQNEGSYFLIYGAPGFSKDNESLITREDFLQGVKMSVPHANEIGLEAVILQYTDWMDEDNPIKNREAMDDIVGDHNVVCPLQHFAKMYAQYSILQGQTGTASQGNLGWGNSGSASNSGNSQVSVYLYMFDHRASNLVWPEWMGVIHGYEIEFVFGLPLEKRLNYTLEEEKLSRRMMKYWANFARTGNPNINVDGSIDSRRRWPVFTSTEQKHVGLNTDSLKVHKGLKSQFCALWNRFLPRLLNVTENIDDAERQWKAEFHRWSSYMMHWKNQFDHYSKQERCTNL
Procedure: The synthesized compounds were evaluated for acetylcholinesterase (ACh) and butyrylcholinesterase (BCh) enzyme inhibitory activities.
as §1, §2, §3

DPPH scavenging assay [5] = conditions: for DPPH Free Radical Scavenging Ability: mean ± S.E.M, n = 3
Excerpt: The antioxidant potential of the free acids and their Cu(II) carboxylates was explored via the DPPH method using ascorbic acid as a reference. The DPPH, with a single unpaired electron, is capable of accepting a hydrogen or electron and gives a strong absorption at 517 nm. The absorption generally decreases when it accepts a hydrogen or electron from an antioxidant, forming a stable molecule. The results given in Table 5 indicate that the compounds under study show a moderate level of antioxidant potential. This activity may be attributed to the various structural and electronic factors like coordination geometry, redox properties, chelate ring size, degree of unsaturation, etc.. The transfer of proton or electron from an antioxidant to DPPH results in the formation of species that undergo other reactions like coupling, fragmentation, and addition, which affect the rate and stoichiometry of the reaction.
The compounds under study were subjected to DPPH scavenging ability test as per cited literature. A 0.004% solution of reagent DPPH was added to the different concentrations of tested compounds (i.e., 125, 250, 500 and 1000 μg/mL) and the reaction mixture was incubated subsequently for about thirty minutes in dark. Ascorbic acid was used as positive control. The UV-3000 O.R.I. Germany was used to record the change in absorption of the reaction mixture at 517 nm and the percentage scavenging ability of the compounds under study was determined using formula: % scavenging activity =Absorbance of control−Absorbance of compounds /Absorbance of control×100
The experiments were repeated thrice. The GraphPad Prism® (version 4.0, Sandiego, CA, USA) was used to calculate the IC50 values.

SMILES	DPPH Free Radical Scavenging Ability (DPPH scavenging assay [1]) [%]	H2O2 free radical scavenging ability ([2]; Comp. Conc. 62.5 µg/mL) [%]	H2O2 free radical scavenging ability ([2]; Comp. Conc. 125 µg/mL) [%]	H2O2 free radical scavenging ability ([2]; Comp. Conc. 250 µg/mL) [%]	H2O2 free radical scavenging ability ([2]; Comp. Conc. 500 µg/mL) [%]	H2O2 free radical scavenging ability ([2]; Comp. Conc. 1000 µg/mL) [%]	IC50, inhibition of butyrylcholinesterase [3] [µg/mL]	inhibition of butyrylcholinesterase (% BChE activity) ([3]; Comp. Conc. 62.5 µg/mL, n = 3) [%]	inhibition of butyrylcholinesterase (% BChE activity) ([3]; Comp. Conc. 125 µg/mL, n = 3) [%]	inhibition of butyrylcholinesterase (% BChE activity) ([3]; Comp. Conc. 250 µg/mL, n = 3) [%]	inhibition of butyrylcholinesterase (% BChE activity) ([3]; Comp. Conc. 500 µg/mL, n = 3) [%]	inhibition of butyrylcholinesterase (% BChE activity) ([3]; Comp. Conc. 1000 µg/mL, n = 3) [%]	IC50, Inhibition of Acetylcholinesterase [4] [µg/mL]	Inhibition of Acetylcholinesterase (%AChE Activity) ([4]; Comp. Conc. 62.5 µg/mL, n = 3) [%]	Inhibition of Acetylcholinesterase (%AChE Activity) ([4]; Comp. Conc. 125 µg/mL, n = 3) [%]	Inhibition of Acetylcholinesterase (%AChE Activity) ([4]; Comp. Conc. 250 µg/mL, n = 3) [%]	Inhibition of Acetylcholinesterase (%AChE Activity) ([4]; Comp. Conc. 500 µg/mL, n = 3)	Inhibition of Acetylcholinesterase (%AChE Activity) ([4]; Comp. Conc. 1000 µg/mL, n = 3) [%]	IC50, DPPH Free Radical Scavenging Ability (DPPH scavenging assay [5]) [µg/mL]	DPPH Free Radical Scavenging Ability (DPPH scavenging assay [5]; Comp. Conc. 125 µg/mL) [%]	other results
N#Cc1cccnc1.N#Cc1cccnc1.O=C([O-])Cc1ccccc1Cl.O=C([O-])Cc1ccccc1Cl.O=C([O-])Cc1ccccc1Cl.O=C([O-])Cc1ccccc1Cl.[Cu+2].[Cu+2] [Complex 1, Cu2(2-ClC6H4COO)4(3-CNPy)2]	55.57 ± 0.84	53.50 ± 0.73	62.42 ± 0.57	70.32 ± 0.52	74.27 ± 0.57	80.30 ± 0.64	12	64.53 ± 0.71	68.51 ± 0.77	71.75 ± 0.58	76.45 ± 0.49	81.79 ± 0.62	39	55.67 ± 0.61	62.69 ± 0.77	67.83 ± 0.56	72.60 ± 0.80 %	77.61 ± 0.77	17.69	61.40 ± 0.51	DPPH Free Radical Scavenging Ability (DPPH scavenging assay [5]; Comp. Conc. 250 µg/mL): 67.44 ± 0.55 %; DPPH Free Radical Scavenging Ability (DPPH scavenging assay [5]; Comp. Conc. 500 µg/mL): 73.47 ± 0.52 %; DPPH Free Radical Scavenging Ability (DPPH scavenging assay [5]; Comp. Conc. 1000 µg/mL): 78.39 ± 0.49 %
O=C(O)Cc1ccccc1Cl [L^1, 2-chlorophenyl acetic acid]																					inhibition at 62.5 µg/mL ([3]; Comp. Conc. 62.5 µg/mL, n = 3): 58.15 ± 0.22%; inhibition at 125 µg/mL ([3]; Comp. Conc. 125 µg/mL, n = 3): 63.4 ± 0.71%; inhibition at 250 µg/mL ([3]; Comp. Conc. 250 µg/mL, n = 3): 68.39 ± 0.35%; inhibition at 500 µg/mL ([3]; Comp. Conc. 500 µg/mL, n = 3): 73.42 ± 0.12%; inhibition at 1000 µg/mL ([3]; Comp. Conc. 1000 µg/mL, n = 3): 77.73 ± 0.03%; IC50 ([3]; read-out: IC50, inhibition of butyrylcholinesterase (converted)): 258 µM; inhibition at 62.5 µg/mL ([4]; Comp. Conc. 62.5 µg/mL, n = 3): 50.35 ± 0.11%; inhibition at 125 µg/mL ([4]; Comp. Conc. 125 µg/mL, n = 3): 54.02 ± 0.24%; inhibition at 250 µg/mL ([4]; Comp. Conc. 250 µg/mL, n = 3): 57.34 ± 0.35%; inhibition at 500 µg/mL ([4]; Comp. Conc. 500 µg/mL, n = 3): 62.29 ± 0.32%; inhibition at 1000 µg/mL ([4]; Comp. Conc. 1000 µg/mL, n = 3): 65.39 ± 0.4%
N#Cc1ccncc1.N#Cc1ccncc1.O=C([O-])Cc1cccc(Cl)c1.O=C([O-])Cc1cccc(Cl)c1.O=C([O-])Cc1cccc(Cl)c1.O=C([O-])Cc1cccc(Cl)c1.[Cu+2].[Cu+2] [Complex 5, Cu2(3-ClC6H4COO)4(4-CNPy)2]	55.56 ± 0.52	59.81 ± 0.65	66.65 ± 0.78	75.70 ± 0.62	80.76 ± 0.63	84.83 ± 0.62	04	72.74 ± 0.61	76.54 ± 0.50	81.48 ± 0.64	86.86 ± 0.60	91.62 ± 0.74	5	69.91 ± 1.30	71.76 ± 0.61	76.87 ± 1.27	82.13 ± 0.20 ^⸸ %	89.20 ± 0.23	20.29	64.78 ± 0.60	IC50, H2O2 free radical scavenging ability [2]: 27.35 µg/mL; DPPH Free Radical Scavenging Ability (DPPH scavenging assay [5]; Comp. Conc. 250 µg/mL): 71.46 ± 0.53 %; DPPH Free Radical Scavenging Ability (DPPH scavenging assay [5]; Comp. Conc. 500 µg/mL): 77.68 ± 0.63 %; DPPH Free Radical Scavenging Ability (DPPH scavenging assay [5]; Comp. Conc. 1000 µg/mL): 85.72 ± 0.79 %
O=C(O)Cc1cccc(Cl)c1 [L^2, 3-chlorophenyl acetic acid]																					IC50 [3]: 234 µM; inhibition at 62.5 µg/mL [3]: 58.15 ± 0.22%; inhibition at 125 µg/mL [3]: 63.4 ± 0.71%; inhibition at 250 µg/mL [3]: 68.39 ± 0.35%; inhibition at 500 µg/mL [3]: 73.42 ± 0.12%; inhibition at 1000 µg/mL [3]: 77.73 ± 0.03%; IC50 [4]: 234 µM; inhibition at 62.5 µg/mL [4]: 50.35 ± 0.11%; inhibition at 125 µg/mL [4]: 54.02 ± 0.24%; inhibition at 250 µg/mL [4]: 57.34 ± 0.35%; inhibition at 500 µg/mL [4]: 62.29 ± 0.32%; inhibition at 1000 µg/mL [4]: 65.39 ± 0.4%
O=C([O-])Cc1ccccc1Cl.O=C([O-])Cc1ccccc1Cl.O=C([O-])Cc1ccccc1Cl.O=C([O-])Cc1ccccc1Cl.Oc1ccncc1.Oc1ccncc1.[Cu+2].[Cu+2] [Complex 3, Cun(2-ClC6H4COO)4(4-OHPy)2]	53.00 ± 0.57	61.30 ± 0.52	66.37 ± 0.58	72.29 ± 0.43	78.58 ± 0.56	84.39 ± 0.60	25	60.2 ± 0.98	63.3 ± 1.10	68.2 ± 0.88	73.2 ± 0.98	76.8 ± 1.20	17	62.98 ± 0.72	67.90 ± 0.96	72.91 ± 0.88	77.08 ± 0.47 %	81.03 ± 0.35	21.72	62.50 ± 0.44	IC50, H2O2 free radical scavenging ability [2]: 11.47 µg/mL; DPPH Free Radical Scavenging Ability (DPPH scavenging assay [5]; Comp. Conc. 250 µg/mL): 66.33 ± 0.33 %; DPPH Free Radical Scavenging Ability (DPPH scavenging assay [5]; Comp. Conc. 500 µg/mL): 74.66 ± 1.20 %; DPPH Free Radical Scavenging Ability (DPPH scavenging assay [5]; Comp. Conc. 1000 µg/mL): 79.00 ± 0.16 %
